Read-outs that look alike come from different tables or passages of the source. Starred links: 1 amine or outer side, 2 acyl side, 3 side chain; linkers in the order of their positions; H or OH if unused. Positions of bridges follow the written chain, without caps; N, C: chain ends. Non-standard residues stand in square brackets, D forms with d. Residues, ends and D or L forms follow the SMILES beside them. TATA = O=C(CC[*:1])N1CN(C(=O)CC[*:2])CN(C(=O)CC[*:3])C1; Phe(4-F) = N[C@@H](Cc1ccc(F)cc1)C(=O)O; β3hR = N=C(N)NCCC[C@H](N)CC(=O)O
Biological target: T1, recombinant human FXIIa (Homo sapiens, UniProt P00748)
T1 construct: made in house; host or cells: CHO cells
T1 sequence (P00748 373-615 limits assumed): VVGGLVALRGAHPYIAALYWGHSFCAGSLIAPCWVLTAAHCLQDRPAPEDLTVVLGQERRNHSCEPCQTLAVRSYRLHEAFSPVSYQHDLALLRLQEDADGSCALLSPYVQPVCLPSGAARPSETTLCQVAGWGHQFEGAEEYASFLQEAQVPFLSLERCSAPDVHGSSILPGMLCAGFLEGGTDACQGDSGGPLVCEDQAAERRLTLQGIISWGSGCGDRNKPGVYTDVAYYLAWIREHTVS
T1 sequence (P00748 20-372 limits assumed): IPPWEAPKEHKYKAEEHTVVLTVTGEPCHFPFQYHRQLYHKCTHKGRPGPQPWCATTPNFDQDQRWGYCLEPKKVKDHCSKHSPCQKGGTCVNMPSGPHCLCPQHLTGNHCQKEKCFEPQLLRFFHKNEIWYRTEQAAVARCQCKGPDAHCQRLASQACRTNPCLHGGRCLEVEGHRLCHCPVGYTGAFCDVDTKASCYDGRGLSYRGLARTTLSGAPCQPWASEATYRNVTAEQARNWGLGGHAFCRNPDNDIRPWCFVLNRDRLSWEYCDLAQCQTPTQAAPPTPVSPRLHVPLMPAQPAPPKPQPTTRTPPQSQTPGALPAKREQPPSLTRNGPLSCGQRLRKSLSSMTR
Assay: Inhibition of recombinant FXIIa (rFXIIa)
Assay type: biochemical
Settings: for remaining activity at 0.001 µM: peptide 1 nM; for remaining activity at 0.002 µM: peptide 2 nM
From the text: The protein sequences for human, rabbit and pig factor XII were taken from the following database entries: human FXII: UniProtKB - P00748; rabbit FXII: NCBI RefSeq - XP_008253687.1; pig FXII: UniProtKB - O97507. The sequences are shown in the Supplementary Methods. DNA encoding the full-length proteins were ordered from Eurofins Genomics. The codons in these sequences were optimized for mammalian expression using the codon optimization tool from Integrated DNA Technologies (IDT). In addition to the FXII gene, the ordered DNA sequences encode a C-terminal GSGS-linker, a His6-tag and a stop codon, and they are flanked by NheI (GCTAGC) and a HindIII (AAGCTT) restriction sites. The entire DNA sequences are provided in the supporting materials. The DNA sequences were cloned into the pEXPR-IBA42 vector downstream of a BM40 signal sequence for secreted expression in mammalian cells. The ligated vector was transformed into DH5 alpha electrocompetent E. coli cells. Plasmid DNA from single clones was sequenced by Sanger sequencing.
1.5 mg plasmid DNA was transfected into 500 ml CHO cells (Thermo Fisher Scientific) in cell suspension culture using polyethylenimine (PEI). Cells were incubated for seven days at 37 °C, 5% CO2 under shaking conditions. The cells were removed by centrifugation and the secreted protein was purified from the supernatant using a nickel-charged immobilized metal affinity chromatography (IMAC) column (5 ml HisTrap FF Crude, GE Healthcare). The column was equilibrated with buffer containing 15 mM imidazole, 100 mM NaCl, 20 mM Tris-HCl, pH 7.4. The pH of the cell culture supernatant was adjusted to 8.0 using NaOH. The supernatant was run through the column at a flow of 5 ml per min. The column was washed with 20 column volumes of equilibration buffer at a flow of 5 ml per min. The protein was eluted with 500 mM imidazole, 100 mM NaCl, 20 mM Tris-HCl, pH 7.4 at a flow of 5 ml per min. The buffer was subsequently exchanged to 100 mM NaCl, 20 mM Tris-HCl, pH 7.4 by three iterative steps of 10-fold dilution and 10-fold concentration using a 10,000 MWCO centrifugal concentrator. The concentration was determined by measuring absorption at 280 nm (ε = 100,000). For the activation of recombinant FXII, 10 μg protein was diluted to a total volume of 10 μl 100 mM NaCl, 20 mM Tris-HCl, pH 7.4 and further diluted with 10 μl of 2-fold concentrated assay buffer (300 mM NaCl, 20 mM MgCl2, 2 mM CaCl2, 20 mM Tris-HCl, 0.02% (v/v) Triton-X100, pH 7.4). Dextran sulfate 500 kDa (DXS500) was added to a final concentration of 0.2 μg μl^−1 and incubated for 1 hour at 37 °C. 5 μg protein was analyzed by SDS-PAGE under reducing conditions.
Protease inhibition assays
The inhibitory activity of peptides was determined by measuring the residual protease activity with a fluorogenic substrate. The assay was performed in buffer containing 10 mM Tris-Cl, pH […]
1% (v/v) DMSO in a volume of 150 µl. FXIIa activity was measured with the fluorogenic substrate Boc-Gln-Gly-Arg-AMC (Bachem) at a final concentration of 50 µM. Mouse α-FXIIa (Molecular Innovations cat # MFXIIA) and human β-FXIIa (Molecular Innovations cat # HFXIIAB) were used at final concentrations of 0.4 nM. The reaction was pipetted as follows: 50 µl of bicyclic peptide in assay buffer were added to 50 µl of FXIIa in assay buffer and incubated for 10 minutes at 25°C before 50 µl of 150 µM fluorogenic substrate in assay buffer were added to measure the residual protease activity with an Infinite M200Pro fluorescence plate reader (excitation at 368 nm, emission at 467 nm; Tecan) for a period of 30 minutes with a read every minute at 25°C. The Tecan software i-control (version 1.1) was used for data analysis. Stock solutions of 1 mM bicyclic peptide were prepared by either dissolving the unpurified cyclization reaction with water or by dissolving purified and lyophilized peptide in water. The bicyclic peptides were serially diluted two-fold using assay buffer. Sigmoidal curves were fitted to the […]

[1] = Recombinant human FXII, individual plates, read-out: Residual activity (%)
[2] = read-out: Residual activity (%), Recombinant human FXII, individual plates

Compound	remaining activity at 0.001 µM [1] [%]	remaining activity at 0.002 µM [1] [%]	remaining activity at 0.004 µM (Recombinant human FXII, peptide 4 nM, individual plates, read-out: Residual activity (%)) [%]	remaining activity at 0.008 µM (Recombinant human FXII, peptide 8 nM, individual plates, read-out: Residual activity (%)) [%]	remaining activity at […] (Recombinant human FXII, peptide 16 nM, individual plates, read-out: Residual activity (%)) [%]	remaining activity at […] (Recombinant human FXII, peptide 32 nM, individual plates, read-out: Residual activity (%)) [%]	remaining activity at 0.064 µM (Recombinant human FXII, peptide 64 nM, individual plates, read-out: Residual activity (%)) [%]	Ki [nM]	remaining activity at 62.5 pM (read-out: Residual activity (%), Recombinant human FXII, peptide 0.0625 nM, individual plates) [%]	remaining activity at 0.000125 µM (read-out: Residual activity (%), Recombinant human FXII, peptide 0.125 nM, individual plates) [%]	remaining activity at 0.0005 µM (read-out: Residual activity (%), Recombinant human FXII, peptide 0.5 nM, individual plates) [%]	remaining activity at 0.001 µM [2] [%]	remaining activity at 0.002 µM [2] [%]
CC(C)C[C@@H]1NC(=O)[C@H](CCC(N)=O)NC(=O)[C@H](CCCNC(=N)N)NC(=O)[C@@H]2CSCCC(=O)N3CN(CN(C3)C(=O)CCSC[C@H](NC(=O)[C@@H](N)CCCNC(=N)N)C(=O)N[C@@H](Cc3ccccc3)C(=O)N[C@@H](CCCNC(=N)N)C(=O)N[C@@H](CC(C)C)C(=O)N3CCC[C@H]3C(=O)N2)C(=O)CCSC[C@@H](C(=O)N[C@@H](CCCNC(=N)N)C(N)=O)NC(=O)[C@H](CCCNC(=N)N)NC1=O [FXII618]	87.7	78.5	65.2	47.5	30	16.5	6.9						
CC(C)C[C@@H]1NC(=O)[C@H](CCC(N)=O)NC(=O)[C@H](Cc2c[nH]cn2)NC(=O)[C@@H]2CSCCC(=O)N3CN(CN(C3)C(=O)CCSC[C@H](NC(=O)[C@@H](CO)NC(=O)[C@H](N)CCCNC(=N)N)C(=O)N[C@@H](Cc3ccc(F)cc3)C(=O)N[C@@H](CCCNC(=N)N)C(=O)N[C@@H](CC(C)C)C(=O)N3CCC[C@H]3C(=O)N2)C(=O)CCSC[C@@H](C(N)=O)NC(=O)C[C@H](CCCNC(=N)N)NC1=O [FXII900] (H-[dR][dS]C[Phe(4-F)]RLPCHQL[β3hR]C-NH2; linker 3-8-13 via TATA)								0.51	93.8	87.9	61.1	35.5	10.4

Source: PMC7403315, “Cyclic peptide FXII inhibitor provides safe anticoagulation in a thrombosis model and in artificial lungs” (Nature Communications, 2020)
